Drawing on patent US9340590B2 (priority 2011, dated 2016), this text covers IC50 for six molecules.

pIC50: −log10 of the molar value.

Experiment in all cases: cell-based
Experiment [1] concerns the target hNav1.5 (Homo sapiens, UniProt Q14524). Particulars: IonWorks Quattro, use-dependent block, hNav1.5; read-out: IWQ Use Nav1.5. For orientation: Patch clamp records ionic current or voltage across a cell membrane.
The target in experiment [2] is hNav1.7 (Homo sapiens, UniProt Q15858). The format is cell-based. Particulars: IonWorks Quattro, use-dependent block, hNav1.7; read-out: IWQ Use Nav1.7.
For experiment [3], the target named is hNav1.3 (Homo sapiens, UniProt Q9NY46). Particulars: IonWorks Quattro, use-dependent block, hNav1.3; read-out: IWQ Use Nav1.3.
Sequence of hNav1.3 (Q9NY46 whole entry, looked up): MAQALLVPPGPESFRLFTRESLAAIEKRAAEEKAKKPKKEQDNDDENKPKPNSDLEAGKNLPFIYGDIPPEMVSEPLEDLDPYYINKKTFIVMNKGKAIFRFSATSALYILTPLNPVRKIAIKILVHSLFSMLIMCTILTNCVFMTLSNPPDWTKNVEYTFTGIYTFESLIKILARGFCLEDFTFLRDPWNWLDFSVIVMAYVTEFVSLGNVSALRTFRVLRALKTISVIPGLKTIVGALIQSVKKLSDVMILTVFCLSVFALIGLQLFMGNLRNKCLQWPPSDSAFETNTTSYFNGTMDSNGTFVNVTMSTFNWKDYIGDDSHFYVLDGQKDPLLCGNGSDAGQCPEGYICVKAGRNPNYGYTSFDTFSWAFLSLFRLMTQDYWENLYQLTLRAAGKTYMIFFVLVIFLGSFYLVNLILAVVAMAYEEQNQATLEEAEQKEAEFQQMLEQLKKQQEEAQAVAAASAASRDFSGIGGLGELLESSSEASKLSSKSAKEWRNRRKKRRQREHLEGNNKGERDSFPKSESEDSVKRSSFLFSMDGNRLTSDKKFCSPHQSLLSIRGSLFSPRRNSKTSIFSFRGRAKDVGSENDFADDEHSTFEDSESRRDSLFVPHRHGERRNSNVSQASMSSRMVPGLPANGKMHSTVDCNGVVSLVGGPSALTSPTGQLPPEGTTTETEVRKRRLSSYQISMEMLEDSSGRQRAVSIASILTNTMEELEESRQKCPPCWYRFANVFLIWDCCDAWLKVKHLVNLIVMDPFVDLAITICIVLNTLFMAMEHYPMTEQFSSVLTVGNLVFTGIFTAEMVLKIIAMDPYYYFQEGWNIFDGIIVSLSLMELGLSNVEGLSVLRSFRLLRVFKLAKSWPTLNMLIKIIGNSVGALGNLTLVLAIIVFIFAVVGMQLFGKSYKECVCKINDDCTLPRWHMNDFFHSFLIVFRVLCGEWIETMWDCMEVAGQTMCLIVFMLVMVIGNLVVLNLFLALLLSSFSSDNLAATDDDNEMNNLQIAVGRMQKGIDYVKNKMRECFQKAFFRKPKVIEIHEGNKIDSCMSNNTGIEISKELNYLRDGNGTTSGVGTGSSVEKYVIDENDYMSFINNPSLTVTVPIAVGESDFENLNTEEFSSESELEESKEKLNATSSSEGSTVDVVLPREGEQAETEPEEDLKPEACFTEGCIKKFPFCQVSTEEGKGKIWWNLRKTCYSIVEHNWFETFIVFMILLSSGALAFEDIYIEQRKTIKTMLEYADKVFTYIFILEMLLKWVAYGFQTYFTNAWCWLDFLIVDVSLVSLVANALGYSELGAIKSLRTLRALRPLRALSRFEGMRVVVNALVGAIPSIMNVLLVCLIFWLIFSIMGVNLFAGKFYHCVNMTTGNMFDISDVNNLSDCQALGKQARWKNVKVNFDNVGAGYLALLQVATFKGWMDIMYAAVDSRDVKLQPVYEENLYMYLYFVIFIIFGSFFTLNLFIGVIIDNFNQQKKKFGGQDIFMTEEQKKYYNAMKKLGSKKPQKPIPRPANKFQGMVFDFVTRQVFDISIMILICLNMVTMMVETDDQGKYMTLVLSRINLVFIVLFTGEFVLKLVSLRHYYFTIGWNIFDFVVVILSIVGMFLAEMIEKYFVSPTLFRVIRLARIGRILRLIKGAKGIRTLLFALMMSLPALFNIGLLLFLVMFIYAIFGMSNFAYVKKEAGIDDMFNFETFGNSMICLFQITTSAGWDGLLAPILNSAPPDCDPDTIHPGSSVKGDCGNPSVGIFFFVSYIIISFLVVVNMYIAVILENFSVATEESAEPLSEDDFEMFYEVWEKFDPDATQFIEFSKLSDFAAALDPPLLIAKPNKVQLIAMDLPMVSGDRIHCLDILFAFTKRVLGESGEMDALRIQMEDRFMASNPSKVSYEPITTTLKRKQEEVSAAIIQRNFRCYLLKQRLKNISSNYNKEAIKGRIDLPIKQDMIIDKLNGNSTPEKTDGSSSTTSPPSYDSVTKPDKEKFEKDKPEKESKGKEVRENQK

Sequence of hNav1.5 (Q14524 whole entry, looked up): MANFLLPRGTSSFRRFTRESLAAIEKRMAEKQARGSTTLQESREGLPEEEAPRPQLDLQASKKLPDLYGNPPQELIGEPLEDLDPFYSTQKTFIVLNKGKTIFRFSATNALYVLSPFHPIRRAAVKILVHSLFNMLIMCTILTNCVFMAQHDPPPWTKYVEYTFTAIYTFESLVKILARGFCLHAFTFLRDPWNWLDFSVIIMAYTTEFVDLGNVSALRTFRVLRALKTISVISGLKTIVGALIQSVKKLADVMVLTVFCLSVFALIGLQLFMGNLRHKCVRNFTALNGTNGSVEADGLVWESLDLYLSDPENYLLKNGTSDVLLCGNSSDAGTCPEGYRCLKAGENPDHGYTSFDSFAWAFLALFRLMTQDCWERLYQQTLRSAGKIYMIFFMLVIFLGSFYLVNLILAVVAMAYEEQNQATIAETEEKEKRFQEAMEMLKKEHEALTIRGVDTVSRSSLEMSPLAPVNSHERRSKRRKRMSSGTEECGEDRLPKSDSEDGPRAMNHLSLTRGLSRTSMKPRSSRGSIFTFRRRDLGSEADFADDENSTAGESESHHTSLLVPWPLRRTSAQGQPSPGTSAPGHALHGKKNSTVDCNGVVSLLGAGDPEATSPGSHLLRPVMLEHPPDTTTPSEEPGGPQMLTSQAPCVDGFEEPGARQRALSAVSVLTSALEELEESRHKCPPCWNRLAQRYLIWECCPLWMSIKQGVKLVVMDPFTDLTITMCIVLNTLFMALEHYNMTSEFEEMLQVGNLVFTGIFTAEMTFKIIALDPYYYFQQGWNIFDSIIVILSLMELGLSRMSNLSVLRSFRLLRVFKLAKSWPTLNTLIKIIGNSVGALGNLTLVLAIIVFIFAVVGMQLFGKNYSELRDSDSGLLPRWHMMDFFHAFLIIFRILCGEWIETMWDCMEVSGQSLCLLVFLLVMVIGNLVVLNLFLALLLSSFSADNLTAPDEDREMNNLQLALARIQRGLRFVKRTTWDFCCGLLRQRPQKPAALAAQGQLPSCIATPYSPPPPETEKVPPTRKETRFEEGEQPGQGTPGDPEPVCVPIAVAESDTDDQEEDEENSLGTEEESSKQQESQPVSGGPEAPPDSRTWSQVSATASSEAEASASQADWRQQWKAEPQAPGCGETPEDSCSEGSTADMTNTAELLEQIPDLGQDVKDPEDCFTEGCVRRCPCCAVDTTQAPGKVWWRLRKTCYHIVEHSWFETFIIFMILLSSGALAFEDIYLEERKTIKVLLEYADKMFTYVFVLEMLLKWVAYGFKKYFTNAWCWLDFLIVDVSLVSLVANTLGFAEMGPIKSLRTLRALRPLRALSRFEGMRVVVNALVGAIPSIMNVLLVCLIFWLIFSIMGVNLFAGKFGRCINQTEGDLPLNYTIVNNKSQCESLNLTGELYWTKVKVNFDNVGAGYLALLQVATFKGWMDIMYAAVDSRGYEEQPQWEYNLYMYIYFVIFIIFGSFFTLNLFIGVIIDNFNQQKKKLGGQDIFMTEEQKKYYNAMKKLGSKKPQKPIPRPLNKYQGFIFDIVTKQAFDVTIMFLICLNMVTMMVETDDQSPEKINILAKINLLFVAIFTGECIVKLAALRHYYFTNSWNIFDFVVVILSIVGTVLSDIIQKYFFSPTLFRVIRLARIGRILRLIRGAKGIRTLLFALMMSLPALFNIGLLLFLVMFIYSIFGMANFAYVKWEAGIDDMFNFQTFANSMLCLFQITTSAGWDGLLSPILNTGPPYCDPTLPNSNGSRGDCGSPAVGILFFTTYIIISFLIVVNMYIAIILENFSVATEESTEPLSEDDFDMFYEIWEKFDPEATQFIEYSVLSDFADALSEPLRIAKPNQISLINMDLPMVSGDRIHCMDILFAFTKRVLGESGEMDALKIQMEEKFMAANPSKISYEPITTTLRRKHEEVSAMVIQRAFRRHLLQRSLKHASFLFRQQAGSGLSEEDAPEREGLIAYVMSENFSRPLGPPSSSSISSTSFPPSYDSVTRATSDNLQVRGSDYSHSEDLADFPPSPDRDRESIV

In the case of `CC[C@H](C)[C@@H]1NC(=O)[C@@H]2CSSC[C@@H]3NC(=O)[C@H](C(C)C)NC(=O)[C@H](CC(C)C)NC(=O)[C@H](CC(N)=O)NC(=O)[C@@H]4CCCN4C(=O)[C@H](CCCNC(=N)N)NC(=O)[C@H](CSSC[C@H](NC(=O)[C@@H](N)CC(=O)O)C(=O)N[C@@H](CC(C)C)C(=O)NCC(=O)N[C@@H](C)C(=O)N[C@@H](Cc4ccccc4)C(=O)N[C@@H](CCCNC(=N)N)C(=O)N[C@@H](CCCCN)C(=O)N2)NC(=O)[C@H](CSSC[C@@H](C(=O)N[C@@H](CCCCN)C(=O)N[C@@H](Cc2ccc(O)cc2)C(=O)N[C@H](C(=O)N[C@@H](Cc2ccccc2)C(=O)O)C(C)C)NC(=O)[C@H](Cc2c[nH]c4ccccc24)NC(=O)[C@H](CCCNC(=N)N)NC(=O)[C@H](Cc2c[nH]cn2)NC(=O)[C@H]([C@@H](C)O)NC(=O)[C@H](CCCNC(=N)N)NC(=O)[C@H](CO)NC3=O)NC(=O)[C@H](CCCCN)NC(=O)[C@H](CC(=O)O)NC(=O)[C@H](CCCCN)NC(=O)[C@H](CC(=O)O)NC(=O)[C@@H]2CCCN2C1=O` [compound 843], the pIC50 was 5.55 in experiment [1], 5.44 in experiment [2] and 6.52 in experiment [3].
For `CC[C@H](C)[C@@H]1NC(=O)[C@@H]2CSSC[C@@H]3NC(=O)[C@H](C(C)C)NC(=O)[C@H](CC(C)C)NC(=O)[C@H](CC(N)=O)NC(=O)[C@@H]4CCCN4C(=O)[C@H](CCCNC(=N)N)NC(=O)[C@H](CSSC[C@H](NC(=O)[C@@H](N)CC(=O)O)C(=O)N[C@@H](CC(C)C)C(=O)NCC(=O)N[C@@H](C)C(=O)N[C@@H](Cc4ccccc4)C(=O)N[C@@H](CCCNC(=N)N)C(=O)N[C@@H](CCCCN)C(=O)N2)NC(=O)[C@H](CSSC[C@@H](C(=O)N[C@@H](CCCCN)C(=O)N[C@@H](Cc2ccc(O)cc2)C(=O)N[C@H](C(=O)N[C@@H](Cc2ccccc2)C(=O)O)C(C)C)NC(=O)[C@H](Cc2c[nH]c4ccccc24)NC(=O)[C@H](CCCNC(=N)N)NC(=O)[C@H](Cc2c[nH]cn2)NC(=O)[C@H]([C@@H](C)O)NC(=O)[C@H](CCCNC(=N)N)NC(=O)[C@H](CO)NC3=O)NC(=O)[C@H](CCCCN)NC(=O)[C@H](CC(=O)O)NC(=O)[C@H](CC(C)C)NC(=O)[C@H](CC(=O)O)NC(=O)[C@@H]2CCCN2C1=O` [compound 844] the same measures were less than 5.30, 5.35 and 5.35.
On to `CC[C@H](C)[C@@H]1NC(=O)[C@@H]2CSSC[C@@H]3NC(=O)[C@H](C(C)C)NC(=O)[C@H](CC(C)C)NC(=O)[C@H](CC(N)=O)NC(=O)[C@@H]4CCCN4C(=O)[C@H](CCCNC(=N)N)NC(=O)[C@H](CSSC[C@H](NC(=O)[C@@H](N)CC(=O)O)C(=O)N[C@@H](CC(C)C)C(=O)NCC(=O)N[C@@H](C)C(=O)N[C@@H](Cc4ccccc4)C(=O)N[C@@H](CCCNC(=N)N)C(=O)N[C@@H](CCCCN)C(=O)N2)NC(=O)[C@H](CSSC[C@@H](C(=O)N[C@@H](CCCCN)C(=O)N[C@@H](Cc2ccc(O)cc2)C(=O)N[C@H](C(=O)N[C@@H](Cc2ccccc2)C(=O)O)C(C)C)NC(=O)[C@H](Cc2c[nH]c4ccccc24)NC(=O)[C@H](CCCNC(=N)N)NC(=O)[C@H](Cc2c[nH]cn2)NC(=O)[C@H]([C@@H](C)O)NC(=O)[C@H](CCCNC(=N)N)NC(=O)[C@H](CO)NC3=O)NC(=O)[C@H](CCCCN)NC(=O)[C@H](CC(=O)O)NC(=O)[C@H](CCSC)NC(=O)[C@H](CC(=O)O)NC(=O)[C@@H]2CCCN2C1=O` [compound 845], for which the pIC50 is less than 5.30 in experiment [1], 5.33 in experiment [2] and 6.10 in experiment [3].
Turning to `CC[C@H](C)[C@@H]1NC(=O)[C@@H]2CSSC[C@@H]3NC(=O)[C@H](C(C)C)NC(=O)[C@H](CC(C)C)NC(=O)[C@H](CC(N)=O)NC(=O)[C@@H]4CCCN4C(=O)[C@H](CCCNC(=N)N)NC(=O)[C@H](CSSC[C@H](NC(=O)[C@@H](N)CC(=O)O)C(=O)N[C@@H](CC(C)C)C(=O)NCC(=O)N[C@@H](C)C(=O)N[C@@H](Cc4ccccc4)C(=O)N[C@@H](CCCNC(=N)N)C(=O)N[C@@H](CCCCN)C(=O)N2)NC(=O)[C@H](CSSC[C@@H](C(=O)N[C@@H](CCCCN)C(=O)N[C@@H](Cc2ccc(O)cc2)C(=O)N[C@H](C(=O)N[C@@H](Cc2ccccc2)C(=O)O)C(C)C)NC(=O)[C@H](Cc2c[nH]c4ccccc24)NC(=O)[C@H](CCCNC(=N)N)NC(=O)[C@H](Cc2c[nH]cn2)NC(=O)[C@H]([C@@H](C)O)NC(=O)[C@H](CCCNC(=N)N)NC(=O)[C@H](CO)NC3=O)NC(=O)[C@H](CCCCN)NC(=O)[C@H](CC(=O)O)NC(=O)[C@@H]2CCCN2C(=O)[C@H](CC(=O)O)NC(=O)[C@@H]2CCCN2C1=O` [compound 846], the pIC50 in experiment [1] is less than 5.30; in experiment [2], 5.54; in experiment [3], 5.54.
With `CC[C@H](C)[C@@H]1NC(=O)[C@@H]2CSSC[C@@H]3NC(=O)[C@H](C(C)C)NC(=O)[C@H](CC(C)C)NC(=O)[C@H](CC(N)=O)NC(=O)[C@@H]4CCCN4C(=O)[C@H](CCCNC(=N)N)NC(=O)[C@H](CSSC[C@H](NC(=O)[C@@H](N)CC(=O)O)C(=O)N[C@@H](CC(C)C)C(=O)NCC(=O)N[C@@H](C)C(=O)N[C@@H](Cc4ccccc4)C(=O)N[C@@H](CCCNC(=N)N)C(=O)N[C@@H](CCCCN)C(=O)N2)NC(=O)[C@H](CSSC[C@@H](C(=O)N[C@@H](CCCCN)C(=O)N[C@@H](Cc2ccc(O)cc2)C(=O)N[C@H](C(=O)N[C@@H](Cc2ccccc2)C(=O)O)C(C)C)NC(=O)[C@H](Cc2c[nH]c4ccccc24)NC(=O)[C@H](CCCNC(=N)N)NC(=O)[C@H](Cc2c[nH]cn2)NC(=O)[C@H]([C@@H](C)O)NC(=O)[C@H](CCCNC(=N)N)NC(=O)[C@H](CO)NC3=O)NC(=O)[C@H](CCCCN)NC(=O)[C@H](CC(=O)O)NC(=O)[C@H](CCC(N)=O)NC(=O)[C@H](CC(=O)O)NC(=O)[C@@H]2CCCN2C1=O` [compound 847], the pIC50 in experiment [1] is less than 5.30; in experiment [2], less than 5.30; in experiment [3], 5.77.
For the molecule `CC[C@H](C)[C@@H]1NC(=O)[C@@H]2CSSC[C@@H]3NC(=O)[C@H](C(C)C)NC(=O)[C@H](CC(C)C)NC(=O)[C@H](CC(N)=O)NC(=O)[C@@H]4CCCN4C(=O)[C@H](CCCNC(=N)N)NC(=O)[C@H](CSSC[C@H](NC(=O)[C@@H](N)CC(=O)O)C(=O)N[C@@H](CC(C)C)C(=O)NCC(=O)N[C@@H](C)C(=O)N[C@@H](Cc4ccccc4)C(=O)N[C@@H](CCCNC(=N)N)C(=O)N[C@@H](CCCCN)C(=O)N2)NC(=O)[C@H](CSSC[C@@H](C(=O)N[C@@H](CCCCN)C(=O)N[C@@H](Cc2ccc(O)cc2)C(=O)N[C@H](C(=O)N[C@@H](Cc2ccccc2)C(=O)O)C(C)C)NC(=O)[C@H](Cc2c[nH]c4ccccc24)NC(=O)[C@H](CCCNC(=N)N)NC(=O)[C@H](Cc2c[nH]cn2)NC(=O)[C@H]([C@@H](C)O)NC(=O)[C@H](CCCNC(=N)N)NC(=O)[C@H](CO)NC3=O)NC(=O)[C@H](CCCCN)NC(=O)[C@H](CC(=O)O)NC(=O)[C@H](CCCNC(=N)N)NC(=O)[C@H](CC(=O)O)NC(=O)[C@@H]2CCCN2C1=O` [compound 848], the results for the pIC50 in experiment [1], in experiment [2] and in experiment [3] were less than 5.30, 5.35 and 6.22, respectively.
